Structures are written as SMILES. Where a name gives a salt, the structure may show the parent alone.

T1 sequence (Q93009 whole entry): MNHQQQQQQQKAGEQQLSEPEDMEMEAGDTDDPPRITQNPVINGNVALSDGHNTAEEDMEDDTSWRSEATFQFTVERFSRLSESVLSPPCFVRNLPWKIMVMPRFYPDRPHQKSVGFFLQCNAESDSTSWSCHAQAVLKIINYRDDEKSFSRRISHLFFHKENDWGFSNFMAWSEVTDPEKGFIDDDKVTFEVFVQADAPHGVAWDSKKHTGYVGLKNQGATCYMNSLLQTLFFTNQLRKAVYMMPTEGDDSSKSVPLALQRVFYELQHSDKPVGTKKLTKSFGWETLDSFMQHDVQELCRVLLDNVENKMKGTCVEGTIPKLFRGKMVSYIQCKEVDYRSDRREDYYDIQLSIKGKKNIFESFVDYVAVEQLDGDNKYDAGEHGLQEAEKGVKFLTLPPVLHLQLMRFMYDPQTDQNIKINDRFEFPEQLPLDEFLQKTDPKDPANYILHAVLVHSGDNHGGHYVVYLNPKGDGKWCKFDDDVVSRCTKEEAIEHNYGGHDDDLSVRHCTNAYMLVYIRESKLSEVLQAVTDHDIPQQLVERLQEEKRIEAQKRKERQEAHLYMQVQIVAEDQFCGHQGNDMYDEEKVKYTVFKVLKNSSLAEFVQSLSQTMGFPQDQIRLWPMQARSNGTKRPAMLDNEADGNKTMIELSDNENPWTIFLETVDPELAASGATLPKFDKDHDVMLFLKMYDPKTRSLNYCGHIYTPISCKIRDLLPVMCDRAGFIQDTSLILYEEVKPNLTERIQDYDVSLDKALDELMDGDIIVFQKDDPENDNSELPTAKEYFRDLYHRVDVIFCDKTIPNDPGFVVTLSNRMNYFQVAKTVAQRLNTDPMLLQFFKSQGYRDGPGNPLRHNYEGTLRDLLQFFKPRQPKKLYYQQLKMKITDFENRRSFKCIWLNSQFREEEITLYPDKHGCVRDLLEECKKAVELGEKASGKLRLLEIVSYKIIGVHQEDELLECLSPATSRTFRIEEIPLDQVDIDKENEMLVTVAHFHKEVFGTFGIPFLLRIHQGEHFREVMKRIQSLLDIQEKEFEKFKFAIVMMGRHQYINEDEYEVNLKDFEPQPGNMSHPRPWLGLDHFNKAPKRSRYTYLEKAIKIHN

One assay addresses T1, recombinant full-length USP7 (Homo sapiens, UniProt Q93009).
T1 construct: A 25 μl reaction volume containing recombinant full-length USP7 (62 pM)
The assay is described as follows: USP7-mediated ubiquitin-rhodamine cleavage assay. The format is biochemical. Conditions: recombinant full-length USP7 62 pM; ubiquitin-rhodamine 100 nM; 30-minute incubation with compound, 1 hour reaction at room temperature; read-out: Potency: USP7 IC50. The procedure: In the case of the USP7 deubiquitylating enzyme, the IC50 of an USP7 inhibiting compound is the concentration of the compound that inhibits 50% of the activity observed in a USP7-mediated ubiquitin-rhodamine cleavage assay.
For the USP7 inhibitors disclosed herein, their potency was measured using the following test method.
A 25 μl reaction volume containing recombinant full-length USP7 (62 pM) in 20 mM HEPES pH 7.3, 150 mM NaCl, 1 mM TCEP, and 125 μg/ml BSA was assembled in wells of 384 well plates. Test compounds were dispensed with a Hewlett Packard D300 digital dispenser (1% final DMSO). Following a 30-minute incubation at room temperature, ubiquitin-rhodamine was added with the D300 to a final concentration of 100 nM and the reaction was allowed to proceed for 1 hour at room temperature protected from light. The reaction was stopped by the addition of 5 μl 1M acetic acid. Rhodamine fluorescence was measured using an Envision plate reader (Perkin Elmer) and IC50 values were determined by non-linear regression using a 4-parameter fit in a Dotmatics (Bishops Stortford, Hertfordshire, England) software package.
Take `Cc1cc(Cl)cc(-c2ccnc3cc(CN4C(=O)CCC4=O)sc23)c1OC1CCNC(C)(C)C1` (stereo not shown) [Example 205, 1-((7-(5-Chloro-2-((2,2-dimethylpiperidin-4-yl)oxy)-3-methylphenyl)thieno[3,2-b]pyridin-2-yl)methyl)pyrrolidine-2,5-dione]: the concentration for half-maximal inhibition (IC50) was below 1000 nM.

On to `Cc1cc(Cl)cc(-c2ncnc3cc(CN4C(=O)c5ccccc5C4=O)sc23)c1OC1CCNCC1` [Example 202, 2-((4-(5-Chloro-3-methyl-2-(piperidin-4-yloxy)phenyl)thieno[3,2-d]pyrimidin-6-yl)methyl)isoindoline-1,3-dione], for which the IC50 is below 1000 nM.

For the compound `Cc1cc(Cl)cc(-c2ccnc3cc(CN4C(=O)CCN(C)C4=O)sc23)c1OC1CCNCC1` [Example 203, 3-((7-(5-Chloro-3-methyl-2-(piperidin-4-yloxy)phenyl)thieno[3,2-b]pyridin-2-yl)methyl)-1-methyldihydropyrimidine-2,4(1H,3H)-dione], the IC50 is below 1000 nM.

With `Cc1cc(Cl)cc(-c2ccnc3cc(CN4C(=O)C5C(C4=O)C5(C)C)sc23)c1OCC1(C)CNC1` (stereo not shown) [Example 400, 3-[[7-[5-chloro-3-methyl-2-[(3-methylazetidin-3-yl)methoxy]phenyl]thieno[3,2-b]pyridin-2-yl]methyl]-6,6-dimethyl-3-azabicyclo[3.1.0]hexane-2,4-dione], the IC50 is below 1000 nM.

For `Cc1cc(Cl)cc(-c2ccnc3cc(Cn4c(=O)ccn(C(C)C)c4=O)sc23)c1O[C@@H]1CNC[C@@H]1C` [Example 329, 3-[[7-[5-chloro-3-methyl-2-[(3S,4S)-4-methylpyrrolidin-3-yl]oxy-phenyl]thieno[3,2-b]pyridin-2-yl]methyl]-1-isopropyl-pyrimidine-2,4-dione], the half-maximal inhibitory concentration (IC50) was below 1000 nM.

Consider `Cc1cc(Cl)cc(-c2ccnc3cc(CN4C(=O)CCC4=O)sc23)c1O[C@@H]1CNC[C@@H]1C` [Example 105, 1-((7-(5-Chloro-3-methyl-2-(((3S,4S)-4-methylpyrrolidin-3-yl)oxy)phenyl)thieno[3,2-b]pyridin-2-yl)methyl)pyrrolidine-2,5-dione], for which the half-inhibitory concentration (IC50) was below 1000 nM.

`Cc1cc(Cl)cc(-c2ncnc3cc(CN4C(=O)CSC4=O)sc23)c1O[C@@H]1CNC[C@@H]1F` [Example 129, 3-((4-(5-Chloro-2-(((3R,4S)-4-fluoropyrrolidin-3-yl)oxy)-3-methylphenyl)thieno[3,2-d]pyrimidin-6-yl)methyl)thiazolidine-2,4-dione]: the half-inhibitory concentration (IC50) is below 1000 nM.

Consider `Cc1cc(Cl)cc(-c2ccnc3cc(CO)sc23)c1OCC12CNCC1C2` (stereo not shown) [Example 69, (7-(2-((3-Azabicyclo[3.1.0]hexan-1-yl)methoxy)-5-chloro-3-methylphenyl)thieno[3,2-b]pyridin-2-yl)methanol], for which the IC50 lay within 10000 to 30000 nM.

For the compound `Cc1cc(Cl)cc(-c2ncnc3cc(CN4C(=O)C5C(C4=O)C5(C)C)sc23)c1O[C@@H]1CCNC[C@H]1F` (stereo partly drawn) [Example 352, 3-[[4-[5-chloro-2-[[(3R,4R)-3-fluoro-4-piperidyl]oxy]-3-methyl-phenyl]thieno[3,2-d]pyrimidin-6-yl]methyl]-6,6-dimethyl-3-azabicyclo[3.1.0]hexane-2,4-dione; 2,2,2-trifluoroacetic acid], the concentration for half-maximal inhibition (IC50) is below 1000 nM.

Take `Cc1cc(Cl)cc(-c2ccnc3cc([C@H](C)N4C(=O)C5C(C4=O)C5(C)C)sc23)c1OC1CCC(C)NC1` (stereo partly drawn) [Example 396, 3-[(1S)-1-[7-[5-chloro-3-methyl-2-[(6-methyl-3-piperidyl)oxy]phenyl]thieno[3,2-b]pyridin-2-yl]ethyl]-6,6-dimethyl-3-azabicyclo[3.1.0]hexane-2,4-dione; 2,2,2-trifluoroacetic acid]: the concentration for half-maximal inhibition (IC50) is below 1000 nM.

Staying with this assay, now noted: recombinant full-length USP7 62 pM; ubiquitin-rhodamine 100 nM; 30-minute pre-incubation, 1 hour reaction at room temperature; read-out: Potency (USP7 IC50).
Consider `Cc1cc(Cl)cc(-c2ccnc3cc(Cn4c(=O)ccn(CC(F)(F)F)c4=O)sc23)c1O[C@@H]1CN[C@@H]1C` [Example 591, 3-[[7-[5-chloro-3-methyl-2-[(2R,3R)-2-methylazetidin-3-yl]oxy-phenyl]thieno[3,2-b]pyridin-2-yl]methyl]-1-(2,2,2-trifluoroethyl)pyrimidine-2,4-dione], for which the 50% inhibitory concentration (IC50) is below 1000 nM.

Turning to `Cc1cc(Cl)cc(-c2ccnc3cc(Cn4c(=O)ccn(CC(F)(F)F)c4=O)sc23)c1O[C@@H]1CCN(Cc2cnoc2)C[C@@H]1C` [Example 648, 3-[[7-[5-chloro-2-[[(3S,4R)-1-(isoxazol-4-ylmethyl)-3-methyl-4-piperidyl]oxy]-3-methyl-phenyl]thieno[3,2-b]pyridin-2-yl]methyl]-1-(2,2,2-trifluoroethyl)pyrimidine-2,4-dione], the IC50 was below 1000 nM.

For the compound `COC(=O)N1CC[C@@H](Oc2c(C)cc(Cl)cc2-c2ccnc3cc(Cn4c(=O)ccn(CC(F)(F)F)c4=O)sc23)[C@@H](C)C1` [Example 643, methyl (3S,4R)-4-[4-chloro-2-[2-[[2,6-dioxo-3-(2,2,2-trifluoroethyl)pyrimidin-1-yl]methyl]thieno[3,2-b]pyridin-7-yl]-6-methyl-phenoxy]-3-methyl-piperidine-1-carboxylate], the IC50 was below 1000 nM.

Turning to `Cc1cc(Cl)cc(-c2ccnc3cc(CN4C(=O)CCC4=O)sc23)c1O[C@@H]1CN[C@@H]2COC[C@@H]21` [Example 430, 1-[[7-[2-[[(3S,3aR,6aS)-2,3,3a,4,6,6a-hexahydro-1H-furo[3,4-b]pyrrol-3-yl]oxy]-5-chloro-3-methyl-phenyl]thieno[3,2-b]pyridin-2-yl]methyl]pyrrolidine-2,5-dione], the 50% inhibitory concentration (IC50) is below 1000 nM.

Turning to `Cc1cc(Cl)cc(-c2ccnc3cc(CN4C(=O)CCC4=O)sc23)c1OC1CC(C)(N)C1` (stereo not shown) [Example 444, 1-[[7-[2-(3-amino-3-methyl-cyclobutoxy)-5-chloro-3-methyl-phenyl]thieno[3,2-b]pyridin-2-yl]methyl]pyrrolidine-2,5-dione dihydrochloride], the IC50 is below 1000 nM.

Turning to `Cc1cc(Cl)cc(-c2ccnc3cc(CN4C(=O)CCC4=O)sc23)c1O[C@H]1CCCN(CC(=O)O)C1` [Example 579, 2-[(3S)-3-[4-chloro-2-[2-[(2,5-dioxopyrrolidin-1-yl)methyl]thieno[3,2-b]pyridin-7-yl]-6-methyl-phenoxy]-1-piperidyl]acetic acid], the IC50 is below 1000 nM.

For `CC[C@@H]1C[C@H](Oc2c(C)cc(Cl)cc2-c2ccnc3cc(Cn4c(=O)ccn(C)c4=O)sc23)CCN1` [Example 611, 3-[[7-[5-chloro-2-[[(2R,4R)-2-ethyl-4-piperidyl]oxy]-3-methyl-phenyl]thieno[3,2-b]pyridin-2-yl]methyl]-1-methyl-pyrimidine-2,4-dione], the IC50 is below 1000 nM.

Consider `Cc1c(F)c(Cl)cc(-c2ccnc3cc(CN4C(=O)CCC4=O)sc23)c1O[C@H]1CCCNC1` [Example 433, 1-[[7-[5-chloro-4-fluoro-3-methyl-2-[[(3S)-3-piperidyl]oxy]phenyl]thieno[3,2-b]pyridin-2-yl]methyl]pyrrolidine-2,5-dione; 2,2,2-trifluoroacetic acid], for which the IC50 lay within 1000 to 10000 nM.

With `Cc1cc(Cl)cc(-c2ccnc3cc(Cn4c(=O)ccn(CC(F)(F)F)c4=O)sc23)c1O[C@H]1CCNC[C@@H]1C` [Example 629, 3-[[7-[5-chloro-3-methyl-2-[[(3S,4S)-3-methyl-4-piperidyl]oxy]phenyl]thieno[3,2-b]pyridin-2-yl]methyl]-1-(2,2,2-trifluoroethyl)pyrimidine-2,4-dione], the IC50 is below 1000 nM.

Values taken from US10722514B2 (FLX Bio, Inc., priority 2017, dated 2020).
